# Experiments:
# Format in all cases: ADME
# [1] = biological target: T1, Cytochrome P450 3A4 (Homo sapiens, UniProt P08684); test: (§1) Mechanism based inhibition of human cytochrome P450 3A4 measured by testosterone 6-beta hydroxylation
# [2] = biological target: T2, Cytochrome P450 1A1 (Homo sapiens, UniProt P04798); test: Mechanism based inhibition of human cytochrome P450 1A1 measured by 7-ethoxyresorufin O-deethylation (EROD)
# T2 sequence (P04798 whole entry): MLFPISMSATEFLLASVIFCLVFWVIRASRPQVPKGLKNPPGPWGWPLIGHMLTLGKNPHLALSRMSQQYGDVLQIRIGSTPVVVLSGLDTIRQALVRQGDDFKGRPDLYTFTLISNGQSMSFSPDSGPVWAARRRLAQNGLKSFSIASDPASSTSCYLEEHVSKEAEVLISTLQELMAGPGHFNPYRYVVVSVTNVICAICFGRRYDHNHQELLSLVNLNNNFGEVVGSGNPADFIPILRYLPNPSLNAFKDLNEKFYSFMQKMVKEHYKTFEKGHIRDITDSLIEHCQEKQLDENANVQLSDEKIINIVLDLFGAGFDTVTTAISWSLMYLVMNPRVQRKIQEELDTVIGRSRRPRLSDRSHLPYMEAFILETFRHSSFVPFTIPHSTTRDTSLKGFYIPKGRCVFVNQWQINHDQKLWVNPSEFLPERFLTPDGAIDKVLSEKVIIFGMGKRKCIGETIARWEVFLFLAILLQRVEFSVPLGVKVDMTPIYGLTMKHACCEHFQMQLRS
# [3] = biological target: T3, Cytochrome P450 1A2 (Homo sapiens, UniProt P05177); test: Mechanism based inhibition of human cytochrome P450 1A2 measured by 7-ethoxyresorufin O-deethylation (EROD)
# T3 sequence (P05177 whole entry): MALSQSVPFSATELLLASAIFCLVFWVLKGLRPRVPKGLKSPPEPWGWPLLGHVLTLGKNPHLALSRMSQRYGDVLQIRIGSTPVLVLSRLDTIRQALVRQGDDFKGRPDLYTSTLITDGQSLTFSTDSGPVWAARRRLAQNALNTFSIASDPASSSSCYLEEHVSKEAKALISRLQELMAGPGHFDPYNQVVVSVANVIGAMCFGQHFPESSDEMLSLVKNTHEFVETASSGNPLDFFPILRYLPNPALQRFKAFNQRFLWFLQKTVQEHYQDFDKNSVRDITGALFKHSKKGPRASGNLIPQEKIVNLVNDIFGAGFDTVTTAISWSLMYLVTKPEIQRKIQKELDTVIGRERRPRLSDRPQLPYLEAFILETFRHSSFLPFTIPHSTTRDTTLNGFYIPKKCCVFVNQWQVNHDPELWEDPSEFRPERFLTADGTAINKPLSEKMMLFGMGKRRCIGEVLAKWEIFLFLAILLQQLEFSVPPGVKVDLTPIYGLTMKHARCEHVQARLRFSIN
# [4] = biological target: T4, CYP3A4 (Homo sapiens, UniProt P08684); test: (§2) Mechanism based inhibition of human cytochrome P450 3A4 measured by (14C)formaldehyde production from (N-methyl-14C)-erythromycin; settings: human, probe (N-methyl-14C)-erythromycin
# [5] = biological target: T1, Cytochrome P450 3A4; test: as §2
# [6] = biological target: T5, CYP1A1 (Rattus norvegicus, UniProt P00185); test: (§3) Mechanism based inhibition of rat cytochrome P450 CYP1A1 measured by 7-ethoxyresorufin O-deethylation (EROD); settings: rat, probe 7-ethoxyresorufin (O-deethylation, EROD)
# T5 sequence (P00185 whole entry): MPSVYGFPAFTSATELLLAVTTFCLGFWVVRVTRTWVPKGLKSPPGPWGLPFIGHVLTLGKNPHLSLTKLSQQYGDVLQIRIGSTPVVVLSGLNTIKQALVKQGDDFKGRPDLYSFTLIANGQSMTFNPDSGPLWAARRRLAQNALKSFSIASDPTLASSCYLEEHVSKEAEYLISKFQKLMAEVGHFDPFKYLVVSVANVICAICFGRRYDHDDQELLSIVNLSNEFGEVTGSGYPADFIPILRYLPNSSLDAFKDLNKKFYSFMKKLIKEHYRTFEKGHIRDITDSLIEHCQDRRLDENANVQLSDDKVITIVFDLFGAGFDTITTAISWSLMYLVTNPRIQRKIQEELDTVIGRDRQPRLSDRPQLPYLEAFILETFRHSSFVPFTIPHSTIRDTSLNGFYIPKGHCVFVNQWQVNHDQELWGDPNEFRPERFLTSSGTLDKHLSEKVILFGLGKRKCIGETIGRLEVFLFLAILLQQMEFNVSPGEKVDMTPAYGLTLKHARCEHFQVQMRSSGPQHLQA
# [7] = biological target: T6, Cytochrome P450 1A1 (Rattus norvegicus, UniProt P00185); test: as §3
# T6 sequence (P00185 whole entry): T5 sequence (P00185 whole entry)
# [8] = biological target: T7, CYP1A2 (Rattus norvegicus, UniProt P04799); test: (§4) Mechanism based inhibition of rat cytochrome P450 CYP1A2 measured by 7-methoxyresorufin O-demethylation (MROD); settings: rat, probe 7-methoxyresorufin (O-demethylation, MROD)
# T7 sequence (P04799 whole entry): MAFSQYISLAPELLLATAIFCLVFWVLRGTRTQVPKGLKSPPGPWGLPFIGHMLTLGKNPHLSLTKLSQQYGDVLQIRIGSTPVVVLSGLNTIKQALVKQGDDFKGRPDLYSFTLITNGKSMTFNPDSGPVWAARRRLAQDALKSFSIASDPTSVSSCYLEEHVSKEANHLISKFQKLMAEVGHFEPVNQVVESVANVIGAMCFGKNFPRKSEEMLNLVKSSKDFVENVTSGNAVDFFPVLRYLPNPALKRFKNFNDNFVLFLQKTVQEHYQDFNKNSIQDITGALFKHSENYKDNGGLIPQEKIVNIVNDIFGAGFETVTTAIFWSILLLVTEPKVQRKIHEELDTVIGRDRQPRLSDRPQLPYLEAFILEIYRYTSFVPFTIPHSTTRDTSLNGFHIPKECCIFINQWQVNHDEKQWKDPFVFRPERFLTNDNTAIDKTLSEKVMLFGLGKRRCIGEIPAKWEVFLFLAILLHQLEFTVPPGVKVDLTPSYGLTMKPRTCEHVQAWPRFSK
# [9] = biological target: T8, Cytochrome P450 1A2 (Rattus norvegicus, UniProt P04799); test: as §4
# T8 sequence (P04799 whole entry): T7 sequence (P04799 whole entry)
# [10] = biological target: T9, Cytochrome P450 2B1 (Rattus norvegicus, UniProt P00176); test: Mechanism based inhibition of rat cytochrome P450 2B1
# T9 sequence (P00176 whole entry): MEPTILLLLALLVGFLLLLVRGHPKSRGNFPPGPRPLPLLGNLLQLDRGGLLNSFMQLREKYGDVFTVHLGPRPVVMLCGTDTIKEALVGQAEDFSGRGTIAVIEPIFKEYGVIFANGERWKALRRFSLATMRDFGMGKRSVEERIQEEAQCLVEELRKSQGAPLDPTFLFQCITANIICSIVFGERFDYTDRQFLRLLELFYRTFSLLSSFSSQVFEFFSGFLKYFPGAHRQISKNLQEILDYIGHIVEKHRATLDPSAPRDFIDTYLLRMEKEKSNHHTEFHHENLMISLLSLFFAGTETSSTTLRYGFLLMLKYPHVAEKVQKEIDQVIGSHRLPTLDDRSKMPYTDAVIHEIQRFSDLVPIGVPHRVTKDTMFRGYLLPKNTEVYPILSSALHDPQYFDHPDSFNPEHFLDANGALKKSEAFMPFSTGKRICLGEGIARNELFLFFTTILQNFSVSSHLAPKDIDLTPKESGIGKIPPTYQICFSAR
# [11] = biological target: T9, Cytochrome P450 2B1; test: Mechanism based inhibition of rat cytochrome P450 CYP2B1 measured by 7-EFC O-deethylation activity; settings: rat
# [12] = biological target: T10, CYP2A6 (Homo sapiens, UniProt P11509); test: (§5) Mechanism based inhibition of human cytochrome P450 2A6 measured by coumarin 7-hydroxylation; settings: human
# T10 sequence (P11509 whole entry): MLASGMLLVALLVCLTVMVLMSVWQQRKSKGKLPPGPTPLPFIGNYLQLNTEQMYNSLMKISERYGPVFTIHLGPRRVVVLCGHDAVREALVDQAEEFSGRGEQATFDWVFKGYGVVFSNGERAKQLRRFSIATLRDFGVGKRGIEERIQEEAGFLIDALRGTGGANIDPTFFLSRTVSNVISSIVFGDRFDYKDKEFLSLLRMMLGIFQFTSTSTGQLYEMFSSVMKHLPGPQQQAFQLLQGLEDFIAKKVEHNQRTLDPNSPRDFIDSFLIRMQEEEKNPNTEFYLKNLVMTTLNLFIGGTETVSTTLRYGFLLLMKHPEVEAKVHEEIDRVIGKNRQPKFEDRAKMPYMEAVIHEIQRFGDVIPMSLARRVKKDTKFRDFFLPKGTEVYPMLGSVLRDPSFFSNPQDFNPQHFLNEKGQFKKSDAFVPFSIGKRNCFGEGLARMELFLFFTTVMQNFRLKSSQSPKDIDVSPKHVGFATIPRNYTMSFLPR
# [13] = biological target: T11, Cytochrome P450 2A6 (Homo sapiens, UniProt P11509); test: as §5
# T11 sequence (P11509 whole entry): T10 sequence (P11509 whole entry)
# [14] = biological target: T4, CYP3A4; test: as §1; settings: probe testosterone (6-beta hydroxylation)
# T4 sequence (P08684 whole entry): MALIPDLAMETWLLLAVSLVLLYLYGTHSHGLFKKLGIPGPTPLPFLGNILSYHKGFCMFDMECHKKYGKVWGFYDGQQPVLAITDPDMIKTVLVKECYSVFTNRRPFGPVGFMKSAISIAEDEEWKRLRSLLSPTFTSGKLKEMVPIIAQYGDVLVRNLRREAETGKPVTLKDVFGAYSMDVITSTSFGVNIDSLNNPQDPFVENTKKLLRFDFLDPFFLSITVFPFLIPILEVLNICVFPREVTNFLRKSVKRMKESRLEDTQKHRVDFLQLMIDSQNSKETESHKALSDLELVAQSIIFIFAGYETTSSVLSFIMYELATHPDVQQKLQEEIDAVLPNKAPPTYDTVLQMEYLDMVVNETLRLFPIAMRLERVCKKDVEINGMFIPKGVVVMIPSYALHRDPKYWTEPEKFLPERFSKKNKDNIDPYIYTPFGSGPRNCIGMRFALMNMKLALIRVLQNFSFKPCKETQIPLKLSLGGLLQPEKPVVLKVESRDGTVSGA
# T1 sequence (P08684 whole entry): as above
smiles,measurement,setting,value
Cc1cc(C)c(SCC[n+]2noc([O-])c2C)c(C)c1,mechanism based inhibition,[1],Cytochrome P450 mechanistic inhibitor: PMID 9107543
same,mechanism based inhibition,[2],Cytochrome P450 mechanistic inhibitor: PMID 9107543
same,mechanism based inhibition,[3],Cytochrome P450 mechanistic inhibitor: PMID 9107543
COc1cc(C[C@@H](CO)[C@H](CO)Cc2ccc3c(c2)OCO3)cc(OC)c1OC,kinact,[4],0.00517 s⁻¹
same,Ki,[5],0.054 µM
CC#Cc1ccc2ccc3cccc4ccc1c2c34,kinact,[6],0.000333 s⁻¹
same,Ki,[7],0.3 µM
same,kinact,[8],0.001 s⁻¹
same,Ki,[9],0.004 µM
O=NOO [PEROXYNITRITE],mechanism based inhibition,[10],Cytochrome P450 mechanistic inhibitor: PMID 12588183
same,mechanism based inhibition,[11],Cytochrome P450 mechanistic inhibitor: PMID 9760281
CCCC(CCC)C(=O)O [VALPROIC ACID],kinact,[12]; probe coumarin,0.0008 s⁻¹
same,Ki,[13],9150 µM
COc1c2c(cc3ccc(=O)oc13)CCO2,kinact,[12]; probe coumarin (7-hydroxylation),0.00233 s⁻¹
same,Ki,[13],27 µM
CCC[C@@H](NC(=O)N1C(=O)C(CC)(CC)[C@@H]1Oc1ccc(C(=O)N2CCN(C)CC2)cc1)c1ccc2c(c1)OCO2,mechanism based inhibition,[1],Cytochrome P450 mechanistic inhibitor
C#Cc1cc2cccc3ccc4cccc1c4c32,kinact,[6],0.00117 s⁻¹
same,Ki,[7],0.01 µM
same,kinact,[8],0.005 s⁻¹
same,Ki,[9],1.2 µM
NNc1nnc(NN)c2ccccc12 [DIHYDRALAZINE],kinact,[14],0.000785 s⁻¹
C#C [ETHYNE],mechanism based inhibition,[3],Cytochrome P450 mechanistic inhibitor: PMID 9760279
C#Cc1ccc2ccc3cccc4ccc1c2c34,kinact,[6],0.00117 s⁻¹
same,Ki,[7],0.02 µM
S=P(N1CC1)(N1CC1)N1CC1 [THIOTEPA],Ki,[10],31 µM
C#Cc1ccc(NC(C)=O)cc1,kinact,[6],0.0015 s⁻¹
same,Ki,[7],8.6 µM
C#Cc1ccc2ccc3ccccc3c2c1,kinact,[6],0.00167 s⁻¹
same,Ki,[7],0.09 µM
COc1cc(C[C@H]2C(=O)OC[C@@H]2Cc2ccc3c(c2)OCO3)cc(OC)c1OC,kinact,[4],0.00533 s⁻¹
same,Ki,[5],0.177 µM
C#Cc1ccc2c(ccc3ccccc32)c1,kinact,[6],0.0133 s⁻¹
same,Ki,[7],0.25 µM

# From ChEMBL document CHEMBL1743341, “Cytochrome p450 enzymes mechanism based inhibitors: common sub-structures and reactivity” (Curr Drug Metab, 2005)
